Consider 21 molecules from ChEMBL document CHEMBL3045376, “Pharmacophore modeling and 3D QSAR analysis of isothiazolidinedione derivatives as PTP1B inhibitors” (Med Chem Res, 2013).

SMILES strings stand for the structures.

In the experiment the target is T1, Tyrosine-protein phosphatase non-receptor type 1 (Homo sapiens, UniProt P18031).
T1 sequence (P18031 whole entry): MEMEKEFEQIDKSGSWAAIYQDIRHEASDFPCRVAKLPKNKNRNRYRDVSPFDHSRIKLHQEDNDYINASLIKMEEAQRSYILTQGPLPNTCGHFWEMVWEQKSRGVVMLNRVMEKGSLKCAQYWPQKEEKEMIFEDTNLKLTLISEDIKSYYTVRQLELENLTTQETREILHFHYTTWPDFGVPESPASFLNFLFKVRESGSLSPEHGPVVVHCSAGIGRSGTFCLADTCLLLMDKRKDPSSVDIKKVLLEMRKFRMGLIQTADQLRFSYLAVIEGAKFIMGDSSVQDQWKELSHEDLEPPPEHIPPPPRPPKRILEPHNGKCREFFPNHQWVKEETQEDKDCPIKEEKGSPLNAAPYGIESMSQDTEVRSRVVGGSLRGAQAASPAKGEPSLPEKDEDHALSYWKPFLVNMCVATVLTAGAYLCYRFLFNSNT
Nature of the experiment: Inhibition of Homo sapiens (human) PTP1B expressed in Escherichia coli using PNPP as substrate.
`CC(=O)N[C@@H](Cc1ccc(C2CC(=O)NS2(=O)=O)cc1)C(N)=O` (stereo partly specified) gave an IC50 of 100000 nM.

On to `NC(=O)[C@H](Cc1ccc(C2CC(=O)NS2(=O)=O)cc1)NC(=O)[C@H](Cc1ccccc1)NC(=O)Cc1ccc(C(F)(F)F)cc1` (stereo partly specified), for which inhibition was half-maximal at 170 nM (IC50). The value for `CC(=O)N[C@@H](Cc1ccccc1)C(=O)N[C@@H](Cc1ccc(C2CC(=O)NS2(=O)=O)cc1)C(N)=O` (stereo partly specified) was 661 nM; that for `NC(=O)[C@H](Cc1ccc(C2=CC(=O)NS2(=O)=O)cc1)NC(=O)[C@H](Cc1ccccc1)NC(=O)Cc1ccc(C(F)(F)F)cc1` was 1400 nM. `CCCCCNC(=O)[C@H](Cc1ccc(C2=CC(=O)NS2(=O)=O)cc1)NC(=O)[C@H](Cc1ccccc1)NC(=O)Cc1ccc(OC)cc1`: it took 1200 nM to reach half-maximal inhibition (IC50).

Take `CCCCCNC(=O)[C@H](Cc1ccc(C2=CS(=O)(=O)NC2=O)cc1)NC(=O)[C@H](Cc1ccccc1)NC(=O)Cc1ccc(OC)cc1`: the IC50 is 6000 nM. As to `NC(=O)[C@H](Cc1ccc(C2=CC(=O)NS2(=O)=O)cc1)NC(=O)[C@@H](N)Cc1ccccc1`, the half-maximal inhibitory concentration (IC50) is 100000 nM. `NC(=O)[C@H](Cc1ccc(C2=CC(=O)NS2(=O)=O)cc1)NC(=O)[C@H](Cc1ccccc1)NC(=O)Cc1ccc(O)cc1` gave a half-inhibitory concentration (IC50) of 791 nM. The result for `CCCCCNC(=O)[C@H](Cc1ccc(N2CC(=O)NS2(=O)=O)cc1)NC(=O)[C@H](Cc1ccccc1)NC(=O)Cc1ccc(OC)cc1` reads 1500 nM.

The molecule `NC(=O)[C@@H](N)Cc1ccc(C2CC(=O)NS2(=O)=O)cc1` (stereo partly specified) showed an IC50 of 100000 nM.

In turn, `COc1ccc(CC(=O)N[C@@H](Cc2ccccc2)C(=O)N[C@@H](Cc2ccc(C3CC(=O)NS3(=O)=O)cc2)C(N)=O)cc1` (stereo partly specified) had an IC50 of 170 nM. Regarding `NC(=O)[C@H](Cc1ccc(C2CC(=O)NS2(=O)=O)cc1)NC(=O)[C@@H](N)Cc1ccccc1` (stereo partly specified), half-maximal inhibition (IC50) required 100000 nM. `COc1ccc(CC(=O)N[C@@H](Cc2ccccc2)C(=O)N[C@@H](Cc2ccc(C3=CC(=O)NS3(=O)=O)cc2)C(N)=O)cc1` showed an IC50 of 1600 nM.

Molecule `CC(=O)N[C@@H](Cc1ccccc1)C(=O)N[C@@H](Cc1ccc([C@@H]2CC(=O)NS2(=O)=O)cc1)C(N)=O` showed a half-maximal inhibitory concentration (IC50) of 180 nM.

The molecule `NC(=O)[C@H](Cc1ccc(C2CC(=O)NS2(=O)=O)cc1)NC(=O)[C@H](Cc1ccccc1)NC(=O)CCc1ccccc1` (stereo partly specified) gave an IC50 of 340 nM. The molecule `NC(=O)[C@H](Cc1ccc(C2CC(=O)NS2(=O)=O)cc1)NC(=O)[C@H](Cc1ccccc1)NC(=O)Cc1ccc(O)cc1` (stereo partly specified) showed a half-inhibitory concentration (IC50) of 170 nM.

In the case of `NC(=O)[C@H](Cc1ccc(C2=CC(=O)NS2(=O)=O)cc1)NC(=O)[C@H](Cc1ccccc1)NC(=O)CCc1ccccc1`, the IC50 was 2700 nM. The molecule `NC(=O)[C@H](Cc1ccc(C2CC(=O)NS2(=O)=O)cc1)NC(=O)[C@H](Cc1ccccc1)NC(=O)Cc1ccccc1` (stereo partly specified) gave an IC50 of 180 nM. Molecule `NC(=O)[C@H](Cc1ccc(C2=CC(=O)NS2(=O)=O)cc1)NC(=O)[C@H](Cc1ccccc1)NC(=O)c1ccccc1` had a 50% inhibitory concentration (IC50) of 1800 nM. The value for `NC(=O)[C@H](Cc1ccc(C2=CC(=O)NS2(=O)=O)cc1)NC(=O)[C@H](Cc1ccccc1)NC(=O)Cc1ccccc1` was 1000 nM.

As for `CC(C)(C)OC(=O)N[C@@H](Cc1ccc(C2CC(=O)NS2(=O)=O)cc1)C(N)=O` (stereo partly specified), the IC50 was 70000 nM.
